Assay results published in patent US8012956B2, “Tropane compounds” (Exelixis, Inc., priority 2007, dated 2011).

Target: HSP90 (Homo sapiens, UniProt P07900)
Assay: HSP90 inhibition (HSP90 IC50)
Assay type: biochemical

IC50 [nM]	SMILES
< 500	COc1cccc(C(=O)N[C@H]2C[C@H]3CC[C@@H](C2)N3c2ccc(C(=O)NCc3c(F)ccc(F)c3Cl)cn2)c1C [N-[(2-chloro-3,6-difluorophenyl)methyl]-6-[3-endo-({[2-methyl-3-(methyloxy)phenyl]carbonyl}amino)-8-azabicyclo[3.2.1]oct-8-yl]pyridine-3-carboxamide]
< 500	CCC(CC)Nc1cc(C(=O)NC2CC3CCC(C2)N3c2ccc(C(=O)N[C@@H]3CCN(CC)C3)cn2)ccc1C(N)=O (stereo partly drawn) [2-[(1-ethylpropyl)amino]-N4-{8-[5-({[(3R)-1-ethylpyrrolidin-3-yl]amino}carbonyl)pyridin-2-yl]-8-azabicyclo[3.2.1]oct-3-endo-yl}benzene-1,4-dicarboxamide]
< 500	CC(C)CCC(=O)c1ccc(N2[C@@H]3CC[C@H]2C[C@@H](NC(=O)c2ccc(C(N)=O)c(NCC4CC4)c2)C3)nc1 [2-[(cyclopropylmethyl)amino]-N4-{8-[5-(4-methylpentanoyl)pyridin-2-yl]-8-azabicyclo[3.2.1]oct-3-endo-yl}benzene-1,4-dicarboxamide]
2000 to 10000	NC(=O)c1ccc(C(=O)N[C@H]2C[C@H]3CC[C@@H](C2)N3c2ccc(C(=O)C(F)(F)F)cn2)cc1NCC1CC1 [2-[(cyclopropylmethyl)amino]-N4-{8-[5-(trifluoroacetyl)pyridin-2-yl]-8-azabicyclo[3.2.1]oct-3-endo-yl}benzene-1,4-dicarboxamide]
500 to 999	CC[C@H](NC(=O)c1ccc(N2C3CCC2CC(NC(=O)c2cccc(OC)c2C)C3)nc1)c1ccccc1 (stereo partly drawn) [6-[3-endo-({[2-methyl-3-(methyloxy)phenyl]carbonyl}amino)-8-azabicyclo[3.2.1]oct-8-yl]-N-[(1S)-1-phenylpropyl]pyridine-3-carboxamide]
1000 to 2000	O=C(NCc1ccccc1)c1ccc(N2[C@@H]3CC[C@H]2C[C@@H](NC(=O)c2ccc(C(O)CO)cc2)C3)nc1 (stereo partly drawn) [6-[3-endo-({(4-(1,2-dihydroxyethyl)phenyl]carbonyl}amino)-8-azabicyclo[3.2.1]oct-8-yl]-N-(phenylmethyl)pyridine-3-carboxamide]
1000 to 2000	COc1cccc(C(=O)N[C@H]2C[C@H]3CC[C@@H](C2)N3c2ccc(C(N)=O)cn2)c1CCCO [6-[3-endo-({[2-(3-hydroxypropyl)-3-(methyloxy)phenyl]carbonyl}amino)-8-azabicyclo[3.2.1]oct-8-yl]pyridine-3-carboxamide]
< 500	CCC(CC)Nc1cc(C(=O)NC2CC3CCC(C2)N3c2ccc(C(=O)N[C@@H]3CCCN(C(C)C)C3)cn2)c(C)cc1C(N)=O (stereo partly drawn) [5-[(1-ethylpropyl)amino]-2-methyl-N-{8-[5-({[(3R)-1-(1-methylethyl)piperidin-3-yl]amino}carbonyi)pyridin-2-yl]-8-azabicyclo[3.2.1]oct-3-endo-yl}benzene-1,4-dicarboxamide]
< 500	COc1cccc(C(=O)NC2CC3CCC(C2)N3c2ccc(C(=O)NC(C)c3ccc(Cl)cc3)cn2)c1C (stereo not drawn) [N-[1-(4-chlorophenyl)ethyl]-6-[3-endo-({[2-methyl-3-(methyloxy)phenyl]carbonyl}amino)-8-azabicyclo[3.2.1]oct-8-yl]pyridine-3-carboxamide]
< 500	CCC(CC)Nc1cc(C(=O)N[C@H]2C[C@H]3CC[C@@H](C2)N3c2ccc(C(C)=O)cn2)c(F)cc1C(N)=O [N-[8-(5-acetylpyridin-2-yl)-8-azabicyclo[3.2.1]oct-3-endo-yl]-5-[(1-ethylpropyl)amino]-2-fluorobenzene-1,4-dicarboxamide]
< 500	NC(=O)c1cc(Br)c(C(=O)N[C@H]2C[C@H]3CC[C@@H](C2)N3c2ccc(C(=O)C3CC3)cn2)cc1NC1CCCC1 [2-bromo-5-(cyclopentylamino)-N-{8-[5-(cyclopropylcarbonyl)pyridin-2-yl]-8-azabicyclo[3.2.1]oct-3-endo-yl}benzene-1,4-dicarboxamide]
500 to 999	COc1cccc(C(=O)NC2CC3CCC(C2)N3c2ccc(C(=O)N[C@@H](C)C(N)=O)cn2)c1C (stereo partly drawn) [N-[(1S)-2-amino-1-methyl-2-oxoethyl]-6-[3-endo-({[2-methyl-3-(methyloxy)phenyl]carbonyl}amino)-8-azabicyclo[3.2.1]oct-8-yl]pyridine-3-carboxamide]
1000 to 2000	COc1cccc(C(=O)N[C@H]2C[C@H]3CC[C@@H](C2)N3c2ccc(C(=O)Nc3ccc(C)cc3)cn2)c1C [6-[3-endo-({[2-methyl-3-(methyloxy)phenyl]carbonyl}amino)-8-azabicyclo[3.2.1]oct-8-yl]-N-(4-methylphenyl)pyridine-3-carboxamide]
< 500	C[C@H](NC(=O)c1ccc(N2C3CCC2CC(NC(=O)c2ccc(C(N)=O)c(Nc4ccncc4)c2)C3)nc1)c1ccc(N2CCN(C)CC2)cc1 (some centres unmarked)
< 500	CC(=O)c1ccc(N2[C@@H]3CC[C@H]2C[C@@H](NC(=O)c2ccc(C(N)=O)c(NCC(F)(F)F)c2)C3)nc1 [N4-[8-(5-acetylpyridin-2-yl)-8-azabicyclo[3.2.1]oct-3-endo-yl]-2-[(2,2,2-trifluoroethyl)amino]benzene-1,4-dicarboxamide]
500 to 999	COc1cccc(C(=O)NC2CC3CCC(C2)N3c2ccc(C(=O)N[C@@H]3CCNC3)cn2)c1C (stereo partly drawn) [6-[3-endo-({[2-methyl-3-(methyloxy)phenyl]carbonyl}amino)-8-azabicyclo[3.2.1]oct-8-yl]-N-[(3R)-pyrrolidin-3-yl]pyridine-3-carboxamide]
< 500	CNc1cccc(C(=O)NC2CC3CCC(C2)N3c2ccc(C(=O)N[C@@H](C)c3ccc(N4CCN(C)CC4)cc3)cn2)c1C (stereo partly drawn) [6-[3-endo-({[2-methyl-3-(methylamino)phenyl]carbonyl}amino)-8-azabicyclo[3.2.1]oct-8-yl]-N-{(1S)-1-[4-(4-methylpiperazin-1-yl)phenyl]ethyl}pyridine-3-carboxamide]
< 500	COc1cc(Nc2cc(C(=O)NC3CC4CCC(C3)N4c3ccc(C(=O)N[C@@H](C)c4ccc(N5CCN(C)CC5)cc4)cn3)ccc2C(N)=O)cc(OC)c1OC (stereo partly drawn) [N4-(8-{5-[({(1S)-1-[4-(4-methylpiperazin-1-yl)phenyl]ethyl}amino)carbonyl]pyridin-2-yl}-8-azabicyclo[3.2.1]oct-3-endo-yl)-2-{[3,4,5-tris(methyloxy)phenyl]amino}benzene-1,4-dicarboxamide]
< 500	CCN(CC)CCOc1ccc([C@H](C)NC(=O)c2ccc(N3C4CCC3CC(NC(=O)c3cccc(OC)c3C)C4)nc2)cc1 (stereo partly drawn) [N-[(1S)-1-(4-{[2-(diethylamino)ethyl]oxy}phenyl)ethyl]-6-[3-endo-({[2-methyl-3-(methyloxy)phenyl]carbonyl}amino)-8-azabicyclo[3.2.1]oct-8-yl]pyridine-3-carboxamide]
2000 to 10000	NC(=O)c1ccc(C(=O)N[C@H]2C[C@H]3CC[C@@H](C2)N3c2ccc(C(=O)CCNc3ccc(F)cc3)cn2)cc1NCC1CC1 [2-[(cyclopropylmethyl)amino]-N4-(8-{5-(N-(4-fluorophenyl)-beta-alanyl]pyridin-2-yl}-8-azabicyclo[3.2.1]oct-3-endo-yl)benzene-1,4-dicarboxamide]
< 500	Cc1cc(C(N)=O)c(NC(C)C2CC2)cc1C(=O)N[C@H]1C[C@H]2CC[C@@H](C1)N2c1ccc(C(=O)C2CC2)cn1 (stereo partly drawn) [N-{8-[5-(cyclopropylcarbonyl)pyridin-2-yl]-8-azabicycbo[3.2.1]oct-3-endo-yl}-5-[(l-cyclopropylethyl)amino]-2-methylbenzene-1,4-dicarboxamide]
< 500	COc1cccc(C(=O)N[C@H]2C[C@H]3CC[C@@H](C2)N3c2ccc(C(=O)NCc3ccc(C)cc3)cn2)c1C [6-[3-endo-({(2-methyl-3-(methyloxy)phenyl]carbonyl}amino)-8-azabicyclo[3.2.1]oct-8-yl]-N-[(4-methylphenyl)methyl]pyridine-3-carboxamide]
< 500	COc1cccc(C(=O)N[C@H]2C[C@H]3CC[C@@H](C2)N3c2ccc(C(=O)NCc3ccc(C4CCN(C)CC4)cc3)cn2)c1C [6-[3-endo-({[2-methyl-3-(methyloxy)phenyl]carbonyl}amino)-8-azabicyclo[3.2.1]oct-8-yl]-N-{[4-(1-methylpiperidin-4-yl)phenyl]methyl}pyridine-3-carboxamide]
< 500	NC(=O)c1ccc(C(=O)N[C@H]2C[C@H]3CC[C@@H](C2)N3c2ccc(C(=O)CCN3CCOCC3)cn2)cc1NCC1CC1 [2-[(cyclopropylmethyl)amino]-N4-{8-[5-(3-morpholin-4-ylpropanoyl)pyridin-2-yl]-8-azabicyclo[3.2.1]oct-3-endo-yl}benzene-1,4-dicarboxamide]
< 500	COc1cccc(C(=O)N[C@H]2C[C@H]3CC[C@@H](C2)N3c2ccc(C(=O)NCCCn3ccnc3)cn2)c1C [N-[3-(1H-imidazol-1-yl)propyl]-6-[3-endo-({[2-methyl-3-(methyloxy)phenyl]carbonyl}amino)-8-azabicyclo[3.2.1]oct-8-yl]pyridine-3-carboxamide]
< 500	CC(=O)c1ccc(N2[C@@H]3CC[C@H]2C[C@@H](NC(=O)c2ccc(C(N)=O)c(NC(C)C(C)(C)C)c2)C3)nc1 (stereo partly drawn) [N4-[8-(5-acetylpyridin-2-yl)-8-azabicyclo[3.2.1]oct-3-endo-yl]-2-[(1,2,2-trimethylpropyl)amino]benzene-1,4-dicarboxamide]
< 500	CC[C@@H](C)Nc1c(C(N)=O)cc(Br)c(C(=O)NC2CC3CCC(C2)N3c2ccc(C(=O)C3CC3)cn2)c1Cl (stereo partly drawn) [5-bromo-3-chloro-N4-{8-[5-(cyclopropylcarbonyl)pyridin-2-yl]-8-azabicyclo[3.2.1]oct-3-endo-yl}-2-{[(1R)-1-methylpropyl]amino}benzene-1,4-dicarboxamide]
500 to 999	CCN(CC)CCCNC(=O)c1ccc(N2[C@@H]3CC[C@H]2C[C@@H](NC(=O)c2cccc(OC)c2C)C3)nc1 [N-[3-(diethylamino)propyl]-6-[3-endo-({[2-methyl-3-(methyloxy)phenyl]carbonyl}amino)-8-azabicyclo[3.2.1]oct-8-yl]pyridine-3-carboxamide]
500 to 999	COc1cccc(C(=O)N[C@H]2C[C@H]3CC[C@@H](C2)N3c2ccc(C(=O)Nc3ccc(OCCN(C)C)cc3)cn2)c1C [N-(4-{[2-(dimethylamino)ethyl]oxy}phenyl)-6-[3-endo-({[2-methyl-3-(methyloxy)phenyl]carbonyl}amino)-8-azabicyclo[3.2.1]oct-8-yl]pyridine-3-carboxamide]
